Experimental data from patent US10575543B2, “Acetaldehyde precursors” (Firmenich SA, priority 2014, dated 2020).

Experiments:
[1] = Assessment of hydrolysis rate at pH 3.0 (acetaldehyde release, UV absorbance at 276 nm); type: physicochemical; details: pH 3.0 buffer
Method: Instant beverage applications require rapid hydrolysis of the precursor molecules in order to rapidly release acetaldehyde. Because such beverages might be consumed immediately upon preparation, it is desired for the release to be as rapid as possible.
A pH 3.0 buffer solution was prepared by adding 16.43 g citric acid (CAS 77-92-9) and 4.26 g disodium citrate (CAS 144-33-2) to 1 L of deionized water. Aliquots of the Example 1-2 preparations were added to the buffer solution within a Distek 2100B USP 2 dissolution system stirring at 200 rpm. The concentration of acetaldehyde in solution was monitored as a function of time using a UV/V is spectrometer probe which measured absorbance at 276 nm every 1 second. Results for comparative samples were taken from work by Gassenmeier et al..

[2] = Assessment of hydrolysis rate under spray drying feed conditions (pH 8.0 buffer/limonene emulsion); type: physicochemical; details: pH 8.0 phosphate buffer; for t50 at pH 8.0: precursor dissolved in limonene, emulsion, time to 50% of maximum absorbance
Method: Acetaldehyde precursors suitable for rendering into dry powders must avoid releasing significant levels of acetaldehyde during various stages of processing. In particular they should resist hydrolysis during the preparation of a spray drying feed emulsion, which can be neutral to basic pH and can contain a significant volume fraction of an oil phase.
A pH 8.0 buffer solution was prepared by adding 49.92 g disodium phosphate heptahydrate (CAS 7782-85-6) and 1.93 g monosodium phosphate (CAS 7558-80-7) to 1 L of deionised water. Aliquots of 0.20 g the Example 1-2 preparations were dissolved in 0.8 g of limonene (CAS 5989-25-7) added to 10 g of the buffer solution within a 30 mL Erlenmeyer flask containing a stir bar. The concentration of acetaldehyde in solution was monitored as a function of time using a UV/V is spectrometer probe measuring absorbance at 276 nm. Stirring was periodically stopped to allow oil droplets to rise to the surface and collect an unobscured absorbance reading of the aqueous solution. Release followed mixed zero and first order kinetics. t50 (the time to 50% of the maximum absorbance) values are reported in Table 2. […] Comparative Sample 1 has t50 of 2.1 minutes, which is so short that a person skilled in the art would consider this compound at risk of experiencing a problematic degree of hydrolysis during processing. Example 1 has a much longer t50 value and released acetaldehyde more slowly than Comparative Sample 1.

C=CC1(C)CCC(C(C)(C)OC(C)OCC)O1 (centres unmarked) [Example 1, 5-(2-(1-ethoxyethoxy)propan-2-yl)-2-methyl-2-vinyltetrahydrofuran]
Rate of acetaldehyde release compared with comparative samples [1]: released acetaldehyde faster than Comparative Samples 2-5 | Increase in absorbance at 276 nm (release of acetaldehyde) ([2]; limonene emulsion, over 1 hour): no measurable increase in absorbance over 1 hour | t50 at pH 8.0 [2]: >>1 hour

CCOC(C)OC(C)=O (centres unmarked) [Comparative Sample 1, 1-ethoxyethyl acetate, reference compound]
t50 ([2]; limonene emulsion): 2.1 min | t50 at pH 8.0 [2]: 2.1 min
